This passage reports IC50 results from patent US20080119513A1, “Sulfonamide Derivative Selectively Inhibiting Mmp-13” (priority 2004, published 2008).

A value given as a limit tells only on which side of the number the result lay.

Holding throughout (assay type): biochemical
The target in one assay is T1, MMP-13 (Homo sapiens, UniProt P45452).
T1 construct: catalytic domain (^104Tyr˜^267Gly) was amplified with RT-PCR; His-tag; enterokinase digestion-site
Briefly: Assay for inhibitory activities on MMPs (fluorogenic peptide substrate), MMP-13. As for the experimental part: In regard to MMP-13, mRNA was prepared from carcinoma cell SW1353 derived from human cartilage stimulate by IL-1 and TNF, and catalytic domain (^[…]) was amplified with RT-PCR. This was cloned in Escherichia coli expression vector […] inserted with His-tag sequence and enterokinase digestion-site, induced and expressed by IPTG (Isopropyl-β-D-thiogalactopyranoside) and expressed in an insoluble fraction. Isolation of MMP-13 from an insoluble fraction was carried out by dissolving in modifier (6 M urea) by a usual method and purification with metal chelate chromatography (Ni […] Sepharose). And then removing modifier (6 M urea) with dialyze and refolding of the enzyme spontaneously gave activated MMP-13. The enzymatic activity on MMPs was analyzed by the method described in “C. Graham Knight, Frances Willenbrock and Gillian Murphy: A novel coumarin-labelled peptide for sensitive continuous assays of the matrix metalloproteinases: FEBS LETT., 296, (1992), 263-266”. The substrate: MOCAc-[…] was purchased from Peptide Institute, Inc., Osaka, Japan. The measurement of the inhibitory activities (IC50) was carried out by the following four methods; (A) Reaction with substrate, enzyme (MMPs) and inhibitor (B) Reaction with substrate and inhibitor, without enzyme (C) Reaction with substrate and enzyme (MMPs), without inhibitor (D) Reaction with substrate only IC50 values were calculated by using the following formula and each fluorescence values of above four methods (A to D). % inhibition={1-(A-B)/(C-D)}×100 IC50 means the concentration required to inhibit 50% of the enzyme activity. The value of inhibitory activity against MMP-2, MMP-8, MMP-9, MMP-12, and MMP-13 measured by above mentioned methods are shown in Table 25 and 26.

A further assay has as its target T2, MMP-12 (Homo sapiens, UniProt P39900).
T2 construct: In regard to MMP-12, catalytic domain (^100Phe˜^263Gly) was amplified with RT-PCR; His-tag; enterokinase digestion-site
Nature of the assay: Assay for inhibitory activities on MMPs (fluorogenic peptide substrate), MMP-12. As for the experimental part: In regard to MMP-12, catalytic domain (^100Phe˜^263Gly) was amplified with RT-PCR from Human Placenta Total RNA. This was cloned in Escherichia coli expression vector pTrc99AHE inserted with His-tag sequence and enterokinase digestion-site, induced and expressed by IPTG (Isopropyl-β-D-thiogalactopyranoside) and expressed in an insoluble fraction. Isolation of MMP-12 from an insoluble fraction was carried out by dissolving in modifier (6 M urea) by a usual method and purification with metal chelate chromatography (Ni Chelateing Sepharose). And then removing modifier (6 M urea) with dialysis and refolding of the enzyme spontaneously gave activated MMP-12.
(§1) The enzymatic activity on MMPs was analyzed by the method described in “C. Graham Knight, Frances Willenbrock and Gillian Murphy: A novel coumarin-labelled peptide for sensitive continuous assays of the matrix metalloproteinases: FEBS LETT., 296, (1992), 263-266”. The substrate: MOCAc-Pro-Leu-Gly-Leu-A2Pr(DNP)-Ala-Arg-NH2 was purchased from Peptide Institute, Inc., Osaka, Japan. The measurement of the inhibitory activities (IC50) was carried out by the following four methods;
(§2) (A) Reaction with substrate, enzyme (MMPs) and inhibitor
(§3) (B) Reaction with substrate and inhibitor, without enzyme
(§4) (C) Reaction with substrate and enzyme (MMPs), without inhibitor
(§5) (D) Reaction with substrate only
(§6) IC50 values were calculated by using the following formula and each fluorescence values of above four methods (A to D).
(§7) % inhibition={1-(A−B)/(C−D)}×100
(§8) IC50 means the concentration required to inhibit 50% of the enzyme activity.
(§9) The value of inhibitory activity against MMP-2, MMP-8, MMP-9, MMP-12, and MMP-13 measured by above mentioned methods are shown in Table 25 and 26.

The next assay concerns the target T3, MMP-2 (Homo sapiens, UniProt P08253).
T3 sequence (P08253 110-660): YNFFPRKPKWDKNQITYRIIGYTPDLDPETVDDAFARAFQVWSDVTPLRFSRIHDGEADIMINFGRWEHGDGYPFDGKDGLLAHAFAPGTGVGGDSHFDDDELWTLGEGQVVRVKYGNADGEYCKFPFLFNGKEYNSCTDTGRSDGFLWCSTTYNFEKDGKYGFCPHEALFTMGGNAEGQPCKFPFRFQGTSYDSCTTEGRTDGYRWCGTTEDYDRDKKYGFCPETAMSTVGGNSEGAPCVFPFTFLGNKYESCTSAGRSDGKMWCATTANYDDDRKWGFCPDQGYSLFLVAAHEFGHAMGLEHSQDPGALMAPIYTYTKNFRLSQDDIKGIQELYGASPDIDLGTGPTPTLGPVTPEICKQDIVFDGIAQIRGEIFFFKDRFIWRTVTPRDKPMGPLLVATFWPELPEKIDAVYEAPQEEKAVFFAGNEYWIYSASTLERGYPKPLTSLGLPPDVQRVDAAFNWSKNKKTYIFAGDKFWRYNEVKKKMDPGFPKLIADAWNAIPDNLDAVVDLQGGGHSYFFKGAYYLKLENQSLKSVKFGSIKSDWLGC
Briefly: Assay for inhibitory activities on MMPs (fluorogenic peptide substrate), MMP-2. As for the experimental part:
MMP-2 was purchased from Calbiochem-Novabiochem International, Inc.
as §1, §2, §3, §4, §5, §6, §7, §8, §9

Another assay has as its target T4, MMP-8 (Homo sapiens, UniProt P22894).
T4 construct: In regard to MMP-8, catalytic domain (^99Phe˜^262Gly) was amplified with PCR; His-tag; enterokinase digestion-site
Briefly: Assay for inhibitory activities on MMPs (fluorogenic peptide substrate), MMP-8.
From the text: In regard to MMP-8, catalytic domain (^99Phe˜^262Gly) was amplified with PCR using commercial available Human Bone Marrow cDNA. This was cloned in Escherichia coli expression vector pTrc99AHE inserted with His-tag sequence and enterokinase digestion-site, induced and expressed by IPTG (Isopropyl-β-D-thiogalactopyranoside) and expressed in a insoluble fraction (Than F. Ho, M. Walid Qoronfleh, Robert C. Wahl, Trica A. Pulvino, Karen J. Vavra, Joe Falvo, Tracey M. Banks, Patricia G. Brake and Richard B. Ciccarelli: Gene expression, purification and characterization of recombinant human neutrophil collagenase. Gene 146, (1994) 297-301. It was prepared by the method in a slight modification). Isolation of MMP-8 from an insoluble fraction was carried out by dissolving in modifier (6 M urea) by a usual method and purification with metal chelate chromatography. And then removing modifier (6 M urea) with dialysis and refolding of the enzyme spontaneously gave activated MMP-8.
as §1, §2, §3, §4, §5, §6, §7, §8, §9

For a further assay, the target named is MMP-9 (Homo sapiens, UniProt P14780). Nature of the assay: Assay for inhibitory activities on MMPs (fluorogenic peptide substrate), MMP-9.
From the text: MMP-9 was isolated and purified by the procedure of Y. Okada et al. (Yasunori Okada, Yukio Gonoji, Katsumi Naka, Katsuro Tomita, Isao Nakanishi, Kazushi Iwata, Kyoko Yamashita, and Taro Hayakawa: Matrix metalloproteinase 9 (92-kDa gelatinase/type IV collagenase) from HT1080 human fibrosarcoma cells. Purification and activation of the precursor and enzymic properties, J. Biol. Chem., 1992, 267, 21712-21719) in combination with other following methods: 1) Yasunori Okada, Tatsuhisa Morodomi, Jan J, Enghild, Ko Suzuki, Atsushi Yasui, Isao Nakanishi, Guy Salvesen and Hideaki Nagase: Matrix metalloproteinase 2 from human rheumatoid synovial fibroblasts. Purification and activation of the precursor and enzymic properties, Eur. J. Biochem., 1990, 194, 721-730; 2) Robin V Ward, Rosalind M Hembry, John J Reynolds and Gillian Murphy: The purification of tissue inhibitor of metalloproteinase-2 from its 72 kDa progelatinase complex. Biochem. J., 1991, 278, 179-187. In detail, human fibrosarcoma ATCC HT1080 cell line was cultured to confluent in Dulbecco's Modified Medium (DMEM) containing 10% fetal-calf serum at 37° C. for 48 hours. Subsequently, the medium of confluent culture was changed to serum-free DMEM medium. To obtain MMP-9, phorbol-12-myristate-13-acetate (TPA) must be added to this serum-free DMEM medium at a concentration of 50 ng/ml. The TPA-treated medium was centrifuged at 3000 rpm for 15 min, and the supernatant was concentrated to 450 ml by a Toyo-Roshi UP-20 apparatus with an ultrafiltration membrane. Then, proMMP-9 in this concentrated solution was purified by using columns of Gelatin-Sepharose and Concanavalin A-Sepharose. The pool containing proMMP-9 was dialyzed, concentrated (Toyo-Roshi UP-20) and applied to columns of Sephacryl S-200 and Green A matrix for the separation from TIMPs. The obtained proMMP-9 fraction was activated by TPCK-Trypsin (Final conc.: 3 μg/501 React Mix.).
as §1, §2, §3, §4, §5, §6, §7, §8, §9

T2 sequence (P39900 100-263): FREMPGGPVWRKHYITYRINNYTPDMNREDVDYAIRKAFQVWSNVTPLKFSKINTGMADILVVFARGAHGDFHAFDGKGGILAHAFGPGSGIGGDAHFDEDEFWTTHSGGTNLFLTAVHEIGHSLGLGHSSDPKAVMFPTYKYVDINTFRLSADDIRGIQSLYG
T4 sequence (P22894 99-262): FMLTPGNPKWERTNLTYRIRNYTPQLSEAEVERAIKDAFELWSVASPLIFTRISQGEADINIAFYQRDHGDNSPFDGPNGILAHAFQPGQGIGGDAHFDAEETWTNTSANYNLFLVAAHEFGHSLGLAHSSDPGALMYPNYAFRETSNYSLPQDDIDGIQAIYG
MMP-9, sequence (P14780 107-707): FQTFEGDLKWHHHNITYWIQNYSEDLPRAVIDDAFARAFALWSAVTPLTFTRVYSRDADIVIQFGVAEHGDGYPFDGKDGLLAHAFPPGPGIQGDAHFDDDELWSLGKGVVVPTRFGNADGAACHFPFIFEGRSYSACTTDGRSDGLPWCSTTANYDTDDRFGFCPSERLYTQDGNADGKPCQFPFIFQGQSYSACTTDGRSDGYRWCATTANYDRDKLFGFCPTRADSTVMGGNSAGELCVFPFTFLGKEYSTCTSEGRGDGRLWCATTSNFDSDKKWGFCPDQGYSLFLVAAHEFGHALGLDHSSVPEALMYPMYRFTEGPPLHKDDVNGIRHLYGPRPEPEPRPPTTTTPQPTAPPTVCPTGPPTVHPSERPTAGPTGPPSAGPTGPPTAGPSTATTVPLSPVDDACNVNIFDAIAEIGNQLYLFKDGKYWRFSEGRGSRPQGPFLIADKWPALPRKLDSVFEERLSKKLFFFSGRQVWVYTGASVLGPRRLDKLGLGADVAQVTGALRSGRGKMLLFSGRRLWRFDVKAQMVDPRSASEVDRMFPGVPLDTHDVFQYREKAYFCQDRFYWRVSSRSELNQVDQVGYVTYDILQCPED

On to `COc1ccc(C(=O)Nc2ccc(-c3ccc(S(=O)(=O)N[C@H](C)C(=O)O)cc3)cc2)cc1OC` [VI-24], for which the IC50 (commonly the concentration that inhibits the measured activity by half) at MMP-13 is 50.1 nM; against MMP-12, 443 nM; against MMP-2 it was 839 nM; against MMP-8, 1520 nM; on MMP-9, > 10000 nM.

With `O=C(O)[C@H](CO)NS(=O)(=O)c1ccc(-c2ccc(C#Cc3ccc4sccc4c3)cc2)cc1` [III-55], the IC50 against MMP-13 was found to be 10.9 nM; at MMP-2 it was 494 nM.

As to `COc1ccc(C(=O)Nc2ccc(-c3ccc(S(=O)(=O)N[C@H](C)C(=O)O)cc3)cc2)cc1` [VI-15], the IC50 at MMP-13 is 55.5 nM; at MMP-12 it was 801 nM; against MMP-2, 222 nM; against MMP-8, > 10000 nM; at MMP-9, > 10000 nM.

`C[C@@H](NS(=O)(=O)c1ccc(-c2ccc(NC(=O)c3ccc4ccccc4c3)cc2)cc1)C(=O)O` [VI-37]: the IC50 against MMP-13 is 38.1 nM; on MMP-12, > 10000 nM; on MMP-2 it was 726 nM; at MMP-8, > 10000 nM; at MMP-9, > 10000 nM.

In the case of `COc1ccc2cc(C#Cc3ccc(-c4ccc(S(=O)(=O)N[C@H](CCSC)C(=O)O)cc4)cc3)ccc2c1` [III-24], the IC50 against MMP-13 was 6.32 nM; against MMP-12, 146 nM; on MMP-2, 239 nM; against MMP-8, 190 nM; at MMP-9, > 10000 nM.

Turning to `COc1ccc2cc(COc3ccc(-c4ccc(S(=O)(=O)N[C@@H](C)C(=O)O)cc4)cc3)ccc2c1` [VII-10], the IC50 is 16.5 nM on MMP-13 and > 10000 nM against MMP-2.

Take `Cc1nc2cc(C#Cc3ccc(-c4ccc(S(=O)(=O)N[C@@H](C)C(=O)O)cc4)cc3)ccc2s1` [III-54]: the IC50 against MMP-13 was determined as 11.3 nM; against MMP-2 it was 147 nM.

As for `COc1ccc2cc(C#Cc3ccc(-c4ccc(S(=O)(=O)NC5(C(=O)O)CCCCC5)cc4)cc3)ccc2c1` [III-66], the half-inhibitory concentration (IC50) is 42.4 nM on MMP-13 and > 10000 nM against MMP-2.

For the compound `COCc1cccc(C#Cc2ccc(-c3ccc(S(=O)(=O)N[C@@H](C)C(=O)O)cc3)cc2)c1` [III-62], the results for the IC50 against MMP-13 and at MMP-2 were 18.9 nM and 402 nM, respectively.

Turning to `COCc1cccc(C#Cc2ccc(-c3ccc(S(=O)(=O)N[C@H](C(=O)O)C(C)C)cc3)cc2)c1` [III-63], the half-inhibitory concentration (IC50) against MMP-13 was determined as 9.5 nM; against MMP-2, 144 nM.

For the compound `COc1ccc2cc(C#Cc3ccc(-c4ccc(S(=O)(=O)N[C@H](Cc5ccc(O)cc5)C(=O)O)cc4)cc3)ccc2c1` [III-46], the IC50 at MMP-13 was found to be 9.12 nM; against MMP-2 it was 57.5 nM.

With `CSCC[C@H](NS(=O)(=O)c1ccc(-c2ccc(OCc3ccc4ccccc4c3)cc2)cc1)C(=O)O` [VII-9], the IC50 against MMP-13 is 26.5 nM; against MMP-2, 188 nM.

As for `C[C@@H](NS(=O)(=O)c1ccc(-c2ccc(COc3ccc4ccccc4c3)cc2)cc1)C(=O)O` [VII-11], the IC50 against MMP-13 is 16.2 nM; against MMP-2 it was > 10000 nM.

As to `CC(C)(C)[C@H](NS(=O)(=O)c1ccc(-c2ccc(OCc3ccc4ccccc4c3)cc2)cc1)C(=O)O` [VII-8], the IC50 against MMP-13 was 7.93 nM; on MMP-2 it was 91 nM.

In the case of `O=C(O)[C@H](CO)NS(=O)(=O)c1ccc(-c2ccc(C#Cc3ccc4[nH]ccc4c3)cc2)cc1` [III-56], the IC50 at MMP-13 is 6.05 nM; against MMP-2, 65.7 nM.

`COc1ccc2cc(C#Cc3ccc(-c4ccc(S(=O)(=O)NC5(C(=O)O)CCCC5)cc4)cc3)ccc2c1` [III-65]: the 50% inhibitory concentration (IC50) is 172 nM on MMP-13 and > 10000 nM against MMP-2.

As for `C[C@H](NS(=O)(=O)c1ccc(-c2ccc(C#Cc3cccc(C(=O)O)c3)cc2)cc1)C(=O)O` [III-61], the half-inhibitory concentration (IC50) against MMP-13 stood at 6.17 nM; against MMP-2, 349 nM.

On to `O=C(Nc1ccc(-c2ccc(S(=O)(=O)N[C@@H](Cc3ccccc3)C(=O)O)cc2)cc1)c1cc2ccccc2s1` [VI-48], for which the IC50 is 47.3 nM at MMP-13 and > 10000 nM on MMP-2.

For the compound `Cc1c(C(=O)Nc2ccc(-c3ccc(S(=O)(=O)N[C@H](Cc4ccccc4)C(=O)O)cc3)cc2)oc2ccccc12` [VI-46], the IC50 turned out to be 96.5 nM on MMP-13 and 747 nM at MMP-2.

With `CC(C)Oc1cccc(C#Cc2ccc(-c3ccc(S(=O)(=O)N[C@@H](C)C(=O)O)cc3)cc2)c1` [III-60], the figures for the IC50 against MMP-13 and at MMP-2 were 97.8 nM and 1170 nM, respectively.

On to `COCc1cccc(C#Cc2ccc(-c3ccc(S(=O)(=O)N[C@@H](CC(C)C)C(=O)O)cc3)cc2)c1` [III-64], for which the IC50 came to 21.1 nM at MMP-13 and 261 nM at MMP-2.
